≈ marks a conversion by molar mass, not a printed value.
System: Mycolicibacterium smegmatis
Assay: Antimycobacterial activity against Mycobacterium smegmatis by liquid microdilution method
Type: functional

SMILES | MIC
CC[C@H](C)[C@@H](NC(=O)[C@H](CCC(=O)O)NC(=O)[C@H](Cc1cnc[nH]1)NC(=O)[C@H](CC(C)C)NC(=O)[C@H](N)Cc1ccccc1)C(=O)N[C@H]1CCCCNC1=O | > 50 µg/mL
CC[C@H](C)[C@@H](NC(=O)[C@@H](CCC(=O)O)NC(=O)[C@H](Cc1cnc[nH]1)NC(=O)[C@H](CC(C)C)NC(=O)[C@H](N)Cc1ccccc1)C(=O)N[C@H]1CCCNC1=O | > 50 µg/mL
CC[C@H](C)[C@@H](NC(=O)[C@@H](CCC(=O)O)NC(=O)[C@@H](Cc1cnc[nH]1)NC(=O)[C@H](CC(C)C)NC(=O)[C@H](N)Cc1ccccc1)C(=O)N[C@H]1CCCCNC1=O | > 50 µg/mL
CC[C@H](C)[C@@H](NC(=O)[C@@H](CCC(=O)O)NC(=O)[C@H](Cc1cnc[nH]1)NC(=O)[C@@H](N)CC(C)C)C(=O)N[C@H]1CCCCNC1=O | > 50 µg/mL
CC[C@H](C)[C@@H](NC(=O)[C@@H](CCC(=O)O)NC(=O)[C@H](Cc1cnc[nH]1)NC(=O)[C@H](CC(C)C)NC(=O)[C@H](N)Cc1ccccc1)C(=O)N[C@@H](C)C(=O)O | > 50 µg/mL
CC[C@H](C)[C@@H](NC(=O)[C@@H](CCC(=O)O)NC(=O)[C@H](Cc1cnc[nH]1)NC(=O)[C@H](CC(C)C)NC(=O)[C@H](N)Cc1ccccc1)C(=O)O | > 50 µg/mL
CC[C@H](C)[C@@H](NC(=O)[C@@H](CCC(=O)O)NC(=O)[C@H](Cc1cnc[nH]1)NC(=O)[C@H](CC(C)C)NC(=O)[C@@H](Cc1ccccc1)NC(C)=O)C(=O)N[C@H]1CCCCNC1=O | > 50 µg/mL
CC[C@H](C)[C@@H](NC(=O)[C@@H](CCC(=O)O)NC(=O)[C@H](Cc1cnc[nH]1)NC(=O)[C@H](CC(C)C)NC(=O)[C@H](N)Cc1ccccc1)C(=O)N[C@@H](CCCCN)C(=O)O | > 50 µg/mL
CC[C@H](C)[C@H](NC(=O)[C@@H](CCC(=O)O)NC(=O)[C@H](Cc1cnc[nH]1)NC(=O)[C@H](CC(C)C)NC(=O)[C@H](N)Cc1ccccc1)C(=O)N[C@H]1CCCCNC1=O | > 50 µg/mL
CC[C@H](C)[C@@H](NC(=O)[C@@H](CCC(=O)O)NC(=O)[C@H](Cc1cnc[nH]1)NC(=O)[C@H](CC(C)C)NC(=O)[C@H](N)Cc1ccccc1)C(=O)N[C@@H]1CCCCNC1=O | > 50 µg/mL
CC[C@H](C)[C@@H](NC(=O)[C@@H](CCC(=O)O)NC(=O)[C@H](Cc1cnc[nH]1)NC(=O)[C@H](CC(C)C)NC(=O)[C@@H](C)N)C(=O)N[C@H]1CCCCNC1=O | > 50 µg/mL
CC[C@H](C)[C@@H](NC(=O)[C@@H](CCC(=O)O)NC(=O)[C@H](Cc1cnc[nH]1)NC(=O)[C@H](CC(C)C)NC(=O)[C@H](N)Cc1ccccc1)C(=O)NC1CCCCCC1 | > 50 µg/mL
CC[C@H](C)[C@@H](NC(=O)[C@@H](CCC(=O)O)NC(=O)[C@H](Cc1cnc[nH]1)NC(=O)[C@H](CC(C)C)NC(=O)[C@@H](N)Cc1ccccc1)C(=O)N[C@H]1CCCCNC1=O | > 50 µg/mL
CC[C@H](C)[C@@H](NC(=O)[C@@H](CCC(=O)O)NC(=O)[C@H](Cc1cnc[nH]1)NC(=O)[C@H](CC(C)C)NC(=O)[C@H](N)Cc1ccccc1)C(=O)N[C@H]1CCCCNC1=O [CALPINACTAM] | 0.78 µg/mL (≈ 1.02 µM)
CC[C@H](C)[C@@H](NC(=O)[C@@H](CCC(=O)O)NC(=O)[C@H](Cc1cnc[nH]1)NC(=O)[C@H](C)NC(=O)[C@H](N)Cc1ccccc1)C(=O)N[C@H]1CCCCNC1=O | > 50 µg/mL
CC[C@H](C)[C@@H](NC(=O)[C@@H](CCC(=O)O)NC(=O)[C@H](C)NC(=O)[C@H](CC(C)C)NC(=O)[C@H](N)Cc1ccccc1)C(=O)N[C@H]1CCCCNC1=O | > 50 µg/mL
CC[C@H](C)[C@@H](NC(=O)[C@@H](C)NC(=O)[C@H](Cc1cnc[nH]1)NC(=O)[C@H](CC(C)C)NC(=O)[C@H](N)Cc1ccccc1)C(=O)N[C@H]1CCCCNC1=O | 6.25 µg/mL (≈ 8.8 µM)
CC(C)C[C@H](NC(=O)[C@H](N)Cc1ccccc1)C(=O)N[C@@H](Cc1cnc[nH]1)C(=O)N[C@H](CCC(=O)O)C(=O)N[C@H](C)C(=O)N[C@H]1CCCCNC1=O | > 50 µg/mL
CC[C@H](C)[C@@H](NC(=O)[C@@H](CCC(=O)O)NC(=O)[C@H](Cc1cnc[nH]1)NC(=O)[C@@H](CC(C)C)NC(=O)[C@H](N)Cc1ccccc1)C(=O)N[C@H]1CCCCNC1=O | > 50 µg/mL
